Consider 9 compounds from patent US11419834B2, “Methods for treating diseases or infections caused by or associated with H. pylori using a halogenated salicylanilide” (Rhode Island Hospital, priority 2019, dated 2022).

Each structure is given as a SMILES string. ≈ marks a conversion by molar mass, not a printed value. Where two headings read alike, the source gives them in different places. Bounds are passed on as bounds.

The test system of assay [1] is H. pylori (strain 60190). As to the kind of experiment: Checkerboard synergy assay (FICI). It counts as cell-based, Helicobacter pylori. To be noted: for FICI value Niclosamide: test compound in combination with niclosamide. The method, then:
References to “synergy” of the halogenated salicylanilide with other therapeutic agents described herein refer to an activity which is greater than the sum of the individual agents used alone. The degree of antimicrobial synergy may be assessed by calculating the fractional inhibitory concentration index (FICI) using the checkerboard assay described in the Examples herein. For two agents A and B, the FICI is calculated as: FICI=MICA-B in combination/(MICA alone+MICB alone) Synergy occurs when the FICI is ≤0.5; partial synergy for 0.5≤FICI≤1.0; no interaction […]; and antagonism FICI >4.0.
Antibacterial synergy was tested using the checkerboard assay using the method described in Zheng Z et al. (Antimicrob. Agents Chemother. 2017 July; 61(7)).
Niclosamide was combined with antibiotics and proton pump inhibitors (PPIs). Cultures of H. pylori (strain 60190) were adjusted to OD600=0.06 and added to compound pairs that had been serially diluted in the same 96-well plates, vertically for one compound and horizontally for the other. Assays were carried out in triplicate as described in the antibacterial susceptibility assay described above. The combinatorial inhibitory concentration was indicated by the fractional inhibitory concentration index (FICI): FICI=MICA combination/MICA alone+MICB combination/MICB alone Paired combinations of compounds and their observed FICI are listed in Table 4. Synergistic activity, where the combined antibacterial effect of the 2 antimicrobial agents is more than the sum of their effects alone, is defined by FICI 0.5, antagonism by FICI >4.0 and ‘no interaction’ by FICI >0.5-4.0.

The subject of assay [2] is H. pylori bacteria. As to the kind of experiment: Scanning electron microscopy of morphology. The assay is classed as cell-based, Helicobacter pylori.
Assay [3] deals with H. pylori bacteria (strain 60190). As to the kind of experiment: Multi-step mutation frequency (serial passage resistance study). The assay is classed as cell-based, Helicobacter pylori. To be noted: for increase in MIC during continuous passage: passaged sequentially over 30 days. The method, then: To determine whether H. pylori can develop resistance against niclosamide, bacterial cells were suspended in MHB with 10% FBS at OD600=0.06 in the presence of serially diluted niclosamide and incubated, as described in the antibiotic susceptibility assays sub-section. The standard antibiotics amoxicillin and clarithromycin were used as controls. From the highest drug concentration allowing visible growth at sub-MIC concentration, aliquots were diluted (1:40) into fresh medium. These were used to inoculate the second set of serial drug dilutions as described by Dalhoff et al. (Clin Infect Ds. 2001 Mar. 15; 32 Suppl, 1:S16-22). After a 3-day incubation, H. pylori bacteria (strain 60190) were passaged sequentially over 30 days and the OD was recorded.

In assay [4] the test system is H. Pylori 43504. As to the kind of experiment: Broth microdilution assay, MIC. It counts as cell-based. To be noted: Helicobacter pylori; strain H. Pylori 43504.
Assay [5] relates to H. Pylori 49503. As to the kind of experiment: Broth microdilution assay, MIC. It counts as cell-based. The settings on record: Helicobacter pylori; strain H. Pylori 49503.
Assay [6] has as its system H. Pylori 51932. As to the kind of experiment: Broth microdilution assay, MIC. The assay is classed as cell-based. To be noted: Helicobacter pylori; strain H. Pylori 51932. (In broth dilution the organism is exposed to a series of concentrations in liquid medium.)
Assay [7] concerns H. pylori (strain 60190). As to the kind of experiment: Effect of pH on MIC (broth microdilution). It counts as cell-based, Helicobacter pylori. To be noted: pH 7.0 to 5.2. The method, then: The pH was adjusted to acidic condition with 1 N HCl. The minimal bactericidal concentration (MBC) was determined by plating 5 μL of broth culture from the MIC assay onto Müller-Hinton agar (BD Biosciences) supplemented with 10% FBS. After 72 h, the lowest concentration at which colonies were not observed was reported as the MBC.

Assay [8] has as its system H. pylori strain 60190. As to the kind of experiment: Minimum bactericidal concentration (plating from MIC assay). It counts as cell-based, Helicobacter pylori.
Assay [9] deals with H. pylori reference strain 60190 (ATCC 49503). As to the kind of experiment: Broth microdilution assay, MIC. The settings on record: Helicobacter pylori, ATCC49503, 72 h; H. pylori strain 60190; Müller-Hinton broth + 10% FBS, 3 days. The assay is classed as cell-based.
In assay [10] the test system is AGS cells invaded by H. pylori. As to the kind of experiment: Invasion, gentamicin protection assay. The assay is classed as cell-based, Helicobacter pylori. To be noted: 0.1 μg/mL, 20 hours, AGS cells. The method, then:
(§1) The AGS (Gastric adenocarcinoma cell lines) cell line was used to examine inhibition of adhesion and invasion of H. pylori (strain 60190) by niclosamide, as described by Schmitt et al. (Front Cell Infect Microbiol. 2013; 3:93). The AGS cells were grown in Dulbecco's Modified Eagle Medium (DMEM, ex. Gibco), supplemented with 10% fetal bovine serum (Gibco) and 1% penicillin/streptomycin (Gibco) and maintained at 37° C. in 5% C02. Then, 5×10^5 cells in antibiotic and serum-free DMEM were seeded in 6-well plates 24 hours prior to infection. H. pylori bacteria at a multiplicity of infection (MOI)=100 were added and allowed to adhere to the surface of the AGS cells. Planktonic bacteria were removed after 2 hours and DMEM with niclosamide (2×MIC) was then added to the wells containing the AGS. The mammalian cells were lysed by 0.1% saponin after 20 hours of incubation and the adhered bacteria were then serially diluted, plated in Brucella agar supplemented with 10% FBS, and incubated as described above. A control arm of DMSO and a comparator using amoxicillin at a concentration of 0.1 μg/mL (10×MIC) was also assessed. […]

For assay [11], the system named is H. pylori (strain 60190) adhered to AGS cells. As to the kind of experiment: Adhesion of H. pylori to AGS cells. The assay is classed as cell-based, Helicobacter pylori. To be noted: 0.1 μg/mL (10×MIC). The method, then: as §1
Assay [12] relates to IL-8 secretion from MKN-28 cells co-cultured with H. pylori. As to the kind of experiment: IL-8 secretion, real-time RT-PCR. It counts as cell-based. To be noted: 10× MIC, H. pylori infected MKN-28 cells. The method, then: Real-Time (RT-PCR) was carried out to determine whether niclosamide has an inhibitory role in IL-8 secretion. MKN-28 cells were co-cultured with H. pylori (MOI=100) in the presence or absence of a test compound. At 24 hours, RNA was isolated from the infected host cells. cDNA was synthesized using the Verso cDNA (Invitrogen) synthesis kit according to manufacturer instructions. Quantitative real-time reactions were carried out in a Bio-Rad iTaq universal SYBR (Bio-Rad, Hercules, Calif. USA) one-step kit and a CFX98 real-time PCR cycler as described by Zheng et al. (Future Med. Chem. 2018, February; 10(3):283-296). The relative gene expression was calculated from Cq values using a ΔΔCq method.
For orientation: In qPCR the cycle at which signal appears reflects the starting amount.

[13] abbreviates: Helicobacter pylori, H. pylori strain 60190, read-out: MBC.

Turning to `COc1ccc2[nH]c([S+]([O-])Cc3ncc(C)c(OC)c3C)nc2c1` (stereo not shown) [Omeprazole, omeprazole], in assay [1], the “FICI value Niclosamide” value came out at 0.625.

In the case of `N#CC(C#N)=NNc1cccc(Cl)c1` [CCCP, carbonyl cyanide m-chlorophenylhydrazone], the “morphology by SEM” value in [2] (10 μM) is “morphological changes and decreased cell size”.

`COc1ccnc(C[S+]([O-])c2nc3ccc(OC(F)F)cc3[nH]2)c1OC` (stereo not shown) [Pantoprazole, pantoprazole]: the “FICI value Niclosamide” value in assay [1] worked out at 0.75.

Regarding `CC[C@H]1OC(=O)[C@H](C)[C@@H](O[C@H]2C[C@@](C)(OC)[C@@H](O)[C@H](C)O2)[C@H](C)[C@@H](O[C@@H]2O[C@H](C)C[C@H](N(C)C)[C@H]2O)[C@](C)(OC)C[C@@H](C)C(=O)[C@H](C)[C@@H](O)[C@]1(C)O` [Clarithromycin, clarithromycin], in assay [3], the “change in MIC through at least 10 passages” value is recorded as 2 fold. Further, the “exposure time after which MIC increased” value in assay [3] (continuous exposure, 30 day study) is above 24 days. Moreover, the “increase in MIC during continuous passage” value in assay [3] was 4 fold. Also, the MIC (commonly the lowest concentration found to suppress growth) is 0.005 µg/mL (≈ 0.00668 µM) in assay [4], 0.0025 µg/mL (≈ 0.00334 µM) in [5], 0.005 µg/mL (≈ 0.00668 µM) in assay [6] and 0.0025 µg/mL in assay [9]. Further, in assay [1], the “FICI value Niclosamide” value was found to be 1.0. For the same compound, the “change of MIC at acidic pH compared to pH 7.0” value in [7] was “increased”. Besides, in assay [8] (setting [13]), the MBC (usually the smallest concentration meeting the test's criterion for killing) was found to be 0.25 µg/mL (≈ 0.334 µM).

In assay [8] (Helicobacter pylori, 60190), `O=C(Nc1ccc(Oc2ccc(Cl)cc2)c(Cl)c1)c1cc(I)cc(I)c1O` [Rafoxanide, rafoxanide] showed an MBC of 8 µg/mL (≈ 12.8 µM).

For the compound `Cc1cc(C(C#N)c2ccc(Cl)cc2)c(Cl)cc1NC(=O)c1cc(I)cc(I)c1O` (stereo not shown) [Closantel, closantel], the values for the MBC in [8] (H. pylori strain 60190) and in assay [8] (setting [13]) were 16.0 µg/mL (≈ 24.1 µM) and 16 µg/mL (≈ 24.1 µM), respectively. For the same compound, the MIC in assay [9] came to 16 µg/mL.

With `CC1(C)S[C@@H]2[C@H](NC(=O)[C@H](N)c3ccc(O)cc3)C(=O)N2[C@H]1C(=O)O` [Amoxicillin, amoxicillin], the “change in MIC through at least 10 passages” value in assay [3] amounted to 2 fold. The “increase in MIC during continuous passage” value in assay [3] came to 2 fold. The minimum inhibitory concentration (MIC) in [4] was determined as 0.03 µg/mL (≈ 0.0821 µM); in [5] it was 0.01 µg/mL (≈ 0.0274 µM); in [6], 0.01 µg/mL (≈ 0.0274 µM); in [9], 0.01 µg/mL. The “effect on intracellular bacteria” value in [10] is reported as “eliminated bacteria completely”. Further, the “FICI value Niclosamide” value in assay [1] is 2.0. In addition, the “effect on bacterial adhesion” value in assay [11] is recorded as “eliminated bacterial adhesion completely”. Besides, the “change of MIC at acidic pH compared to pH 7.0” value in assay [7] is recorded as “increased”. Moreover, in assay [2] (0.1 μg/mL (10×MIC)), the “morphology by SEM” value was “morphological changes and decreased cell size”. Besides, the “effect on IL-8 secretion” value in assay [12] is “inhibited IL-8 secretion”. For the same compound, in assay [8] (setting [13]), the MBC is 0.5 µg/mL (≈ 1.37 µM).

Consider `Cc1ncc([N+](=O)[O-])n1CCO` [Metronidazole, metronidazole], for which the interaction with niclosamide entry in [1] (combination with niclosamide) is on record as “partially synergistic”. In addition, the “FICI value Niclosamide” value in assay [1] turned out to be 0.75.

For `O=C(Nc1cc(Cl)cc(Cl)c1O)c1c(O)c(Cl)cc(Cl)c1Cl` [Oxyclozanide, oxyclozanide], the MBC in assay [8] (setting [13]) was 4 µg/mL (≈ 9.96 µM). Moreover, the MIC in assay [9] is 2 µg/mL.
